Measurements reported in ChEMBL document CHEMBL4680243, “N-benzyl 4,4-disubstituted piperidines as a potent class of influenza H1N1 virus inhibitors showing a novel mechanism of hemagglutinin fusion peptide interaction” (Eur J Med Chem, 2020).
pEC50: −log10 of the molar value. Activity calls are given as the source filed them. No cut-off for these calls is given here.

Experiments:
Influenza A virus [1] = test: Antiviral activity against Influenza A virus (A/PR 8/34 (H1N1)) infected in MDCK cells assessed as reduction in virus-induced cytopathic effect measured after 72 hrs by microscopic analysis; format: functional, organism-based; conditions: A/Puerto Rico/8/1934(H1N1)
Influenza A virus [2] = test: Antiviral activity against Influenza A virus (A/PR 8/34 (H1N1)) infected in MDCK cells assessed as reduction in virus-induced cytopathic effect measured after 72 hrs by MTS assay; format: functional, organism-based; conditions: A/Puerto Rico/8/1934(H1N1)
[3] = Cytotoxicity against MDCK cells assessed as change in cell morphology measured after 72 hrs by microscopic analysis; format: cell-based, Canis lupus familiaris; conditions: dog
[4] = Cytotoxicity against MDCK cells assessed as reduction in cell viability measured after 72 hrs by MTS assay; format: cell-based, Canis lupus familiaris; conditions: dog
Trypsin (Homo sapiens) = Trypsin (Homo sapiens) (UniProt P07477+P07478+P35030); test: Inhibition of human trypsin using Boc-Gln-Ala-Arg-AMC as substrate preincubated for 15 mins followed by substrate addition and measured for 60 mins by fluorescence assay; format: protein assay; conditions: time 75.0 min
[5] = target: T1, Transmembrane protease serine 11D (Homo sapiens) (UniProt O60235); test: Inhibition of recombinant human N-terminal His-tagged HAT (Ala42 to Ile418 residues) expressed in mouse NSO cells using Boc-Gln-Ala-Arg-AMC as substrate preincubated for 15 mins followed by substrate addition and measured for 60 mins by fluorescence assay; conditions: time 75.0 min
T1 sequence (whole entry): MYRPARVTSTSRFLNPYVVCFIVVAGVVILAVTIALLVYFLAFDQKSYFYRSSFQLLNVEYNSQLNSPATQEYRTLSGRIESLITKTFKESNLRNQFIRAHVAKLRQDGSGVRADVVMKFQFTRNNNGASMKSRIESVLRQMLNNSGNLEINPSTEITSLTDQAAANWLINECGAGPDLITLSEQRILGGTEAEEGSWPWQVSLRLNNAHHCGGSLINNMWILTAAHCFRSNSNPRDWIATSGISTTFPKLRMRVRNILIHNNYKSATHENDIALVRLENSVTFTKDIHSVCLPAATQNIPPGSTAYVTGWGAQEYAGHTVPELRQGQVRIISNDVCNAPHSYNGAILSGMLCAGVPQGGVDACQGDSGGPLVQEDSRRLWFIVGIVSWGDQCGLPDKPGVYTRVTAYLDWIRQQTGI

[6] = target: Cathepsin B (Homo sapiens) (UniProt P07858); test: Inhibition of human liver cathepsin B using Z-Phe-Arg-AMC as substrate preincubated for 15 mins followed by substrate addition and measured for 60 mins by fluorescence assay; conditions: time 75.0 min
[7] = target: T2, Cathepsin F (Homo sapiens) (UniProt Q9UBX1); test: Inhibition of recombinant human cathepsin F expressed in baculovirus infected insect cells using Z-Phe-Arg-AMC as substrate preincubated for 15 mins followed by substrate addition and measured for 60 mins by fluorescence assay; conditions: time 75.0 min
T2 sequence (whole entry): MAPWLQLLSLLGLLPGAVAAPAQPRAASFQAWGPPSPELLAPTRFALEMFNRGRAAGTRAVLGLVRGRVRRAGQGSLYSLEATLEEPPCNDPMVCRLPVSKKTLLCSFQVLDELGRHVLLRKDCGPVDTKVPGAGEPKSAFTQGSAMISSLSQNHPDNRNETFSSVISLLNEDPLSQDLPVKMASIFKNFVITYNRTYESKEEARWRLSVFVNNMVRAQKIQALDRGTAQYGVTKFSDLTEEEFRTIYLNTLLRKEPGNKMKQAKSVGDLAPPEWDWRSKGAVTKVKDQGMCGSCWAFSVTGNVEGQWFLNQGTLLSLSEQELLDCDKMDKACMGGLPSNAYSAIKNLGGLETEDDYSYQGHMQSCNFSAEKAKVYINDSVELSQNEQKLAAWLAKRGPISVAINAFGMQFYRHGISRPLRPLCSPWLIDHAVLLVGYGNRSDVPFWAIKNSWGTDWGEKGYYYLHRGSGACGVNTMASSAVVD

[8] = target: Procathepsin L (Homo sapiens) (UniProt P07711); test: Inhibition of human liver cathepsin L using Z-Phe-Arg-AMC as substrate preincubated for 15 mins followed by substrate addition and measured for 60 mins by fluorescence assay; conditions: time 75.0 min
[9] = target: Hemagglutinin (Influenza A virus (A/Puerto Rico/8/1934(H1N1))) (UniProt P03452); test: Inhibition of Influenza A virus (A/PR 8/34 (H1N1)) hemagglutinin infected in MDCK cells assessed as reduction in virus binding to cell surface at 200 uM relative to control; format: cell-based
Influenza A virus [10] = test: Antiviral activity against Influenza A virus (A/PR 8/34 (H1N1)) infected in MDCK cells assessed as reduction in viral RNA synthesis at 2 uM treated at 5 hrs post-infection by RT-qPCR analysis; format: functional, organism-based; conditions: A/Puerto Rico/8/1934(H1N1)
Influenza A virus [11] = test: Antiviral activity against Influenza A virus (A/PR 8/34 (H1N1)) clone 1 infected in MDCK cells assessed as reduction in virus-induced cytopathic effect measured after 72 hrs by microscopic analysis; format: functional, organism-based; conditions: A/Puerto Rico/8/1934(H1N1)
Influenza A virus [12] = test: Antiviral activity against Influenza A virus (A/PR 8/34 (H1N1)) clone 1 infected in MDCK cells assessed as reduction in virus-induced cytopathic effect measured after 72 hrs by MTS assay; format: functional, organism-based; conditions: A/Puerto Rico/8/1934(H1N1)
[13] = Selectivity index, ratio of CC50 for MDCK cells to EC50 for antiviral activity against Influenza A virus (A/Puerto Rico/8/1934(H1N1)) infected in MDCK cells; format: toxicity, cell-based; conditions: dog, read-out: Ratio CC50/EC50

Chain of Procathepsin L (Homo sapiens) (P07711 114-333 limits assumed): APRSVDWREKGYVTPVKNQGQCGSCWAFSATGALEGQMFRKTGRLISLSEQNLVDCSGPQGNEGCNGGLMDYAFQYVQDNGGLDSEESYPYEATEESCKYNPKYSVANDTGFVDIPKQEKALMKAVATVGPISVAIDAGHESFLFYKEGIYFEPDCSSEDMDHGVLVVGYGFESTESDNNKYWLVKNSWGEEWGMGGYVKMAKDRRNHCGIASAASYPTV
Chain of Hemagglutinin (Influenza A virus (A/Puerto Rico/8/1934(H1N1))) (P03452 whole entry): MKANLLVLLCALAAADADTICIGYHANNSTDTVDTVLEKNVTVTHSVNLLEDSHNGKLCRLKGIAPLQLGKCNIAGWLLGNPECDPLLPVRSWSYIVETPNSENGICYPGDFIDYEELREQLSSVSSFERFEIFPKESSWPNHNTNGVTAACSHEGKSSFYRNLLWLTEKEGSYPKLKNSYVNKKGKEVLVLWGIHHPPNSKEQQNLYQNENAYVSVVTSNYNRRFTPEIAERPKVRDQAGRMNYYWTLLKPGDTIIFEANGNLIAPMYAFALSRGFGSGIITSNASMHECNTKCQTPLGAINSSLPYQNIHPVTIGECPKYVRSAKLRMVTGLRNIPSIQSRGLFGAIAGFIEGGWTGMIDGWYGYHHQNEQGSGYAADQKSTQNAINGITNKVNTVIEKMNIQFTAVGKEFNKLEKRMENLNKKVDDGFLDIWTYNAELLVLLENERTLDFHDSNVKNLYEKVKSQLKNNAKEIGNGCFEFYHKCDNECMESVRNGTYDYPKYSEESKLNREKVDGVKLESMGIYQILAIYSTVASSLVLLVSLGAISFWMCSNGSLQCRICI

SMILES	pEC50 (Influenza A virus [1])	pEC50 (Influenza A virus [2])	MCC at 72 h [3] [µM]	CC50 at 72 h [4] [µM]	inhibition (Trypsin (Homo sapiens))	inhibition [5]	inhibition [6]	inhibition [7]	inhibition [8]	inhibition [9] [%]	Activity (Influenza A virus [10])	pEC50 (Influenza A virus [11])	pEC50 (Influenza A virus [12])	selectivity ratio [13]
CC(C)(C)OC(=O)N[C@@H](CC(=O)O)C(=O)N(Cc1ccc(F)cc1)C1(C(=O)NCc2ccccc2)CCNCC1	< 4.00	< 4.00	79	49	inactive	inactive	inactive	inactive	inactive					
CCCCCCCCCCCCCCCCCCCCCCOCC(C)(COCCCCCCCCCCCCCCCCCCCCCC)CO[C@]1(C(=O)O)C[C@H](OS(=O)(=O)O)[C@@H](NC(C)=O)[C@H]([C@H](O)[C@@H](COS(=O)(=O)O)OS(=O)(=O)O)O1										96				
Cc1onc(-c2ccccc2)c1C(=O)N1CCN(c2ccc([N+](=O)[O-])cc2Cl)CC1											Active			
NC(=O)c1ncn([C@@H]2O[C@H](CO)[C@@H](O)[C@H]2O)n1 [RIBAVIRIN]	4.66	4.51	100	58								4.96	4.70	
CC(C)(C)OC(=O)N[C@@H](CC(N)=O)C(=O)N(Cc1ccc(F)cc1)C1(C(=O)NCc2ccccc2)CCN(Cc2ccccc2)CC1	5.74	5.68	> 100	> 100	inactive	inactive	inactive	inactive	inactive					26
